# Values joined by “and” are separate entries in the source; they are usually repeats but may differ in a detail not shown here. Identical values can stand only once.
# Tested on: 653999-131-R-J2-PDC complex spheroids, growth % test/control
# Test: Anticancer human tumor 653999-131-R-J2-PDC patient-derived lung adenocarcinoma cell line growth inhibition [AhR]
# Details: for viability, T/C: stronger effect = lower value
# Outline: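 Spheroids combined tumor cells with HUVEC endothelial cells and human MSCs as stroma. AhR antagonists were paired with standard or investigational drugs, each dosed in half-log steps down from near clinical Cmax, or from 10 microM where Cmax was unknown.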
# [1] = curve of first compound, second compound 0.1 µM
# [2] = curve of first compound, second compound 0.316 µM
# [3] = curve of first compound, second compound 1 µM
# [4] = curve of first compound, second compound 3.16 µM
# [5] = curve of first compound, second compound 10 µM
# [6] = second compound 0.1 µM, first compound 0.0316 µM
# [7] = second compound 0.1 µM, first compound 0.1 µM
# [8] = second compound 0.1 µM, first compound 0.316 µM
# [9] = second compound 0.1 µM, first compound 1 µM
# [10] = second compound 0.1 µM, first compound 3.16 µM
# [11] = second compound 0.1 µM, first compound 10 µM
# [12] = second compound 0.316 µM, first compound 0.0316 µM
# [13] = second compound 0.316 µM, first compound 0.1 µM
# [14] = second compound 0.316 µM, first compound 0.316 µM
# [15] = second compound 0.316 µM, first compound 1 µM
# [16] = second compound 0.316 µM, first compound 3.16 µM
# [17] = second compound 0.316 µM, first compound 10 µM
# [18] = second compound 1 µM, first compound 0.0316 µM
# [19] = second compound 1 µM, first compound 0.1 µM
# [20] = second compound 1 µM, first compound 0.316 µM
# [21] = second compound 1 µM, first compound 1 µM
# [22] = second compound 1 µM, first compound 3.16 µM
# [23] = second compound 1 µM, first compound 10 µM
# [24] = second compound 3.16 µM, first compound 0.0316 µM
# [25] = second compound 3.16 µM, first compound 0.1 µM
# [26] = second compound 3.16 µM, first compound 0.316 µM
# [27] = second compound 3.16 µM, first compound 1 µM
# [28] = second compound 3.16 µM, first compound 3.16 µM
# [29] = second compound 3.16 µM, first compound 10 µM
# [30] = second compound 10 µM, first compound 0.0316 µM
# [31] = second compound 10 µM, first compound 0.1 µM
# [32] = second compound 10 µM, first compound 0.316 µM
# [33] = second compound 10 µM, first compound 1 µM
# [34] = second compound 10 µM, first compound 3.16 µM
# [35] = second compound 10 µM, first compound 10 µM
# 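Further: spheroids exposed to agents for seven days.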
# 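Wherever viability, T/C is given: 100% = DMSO vehicle control viability.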
IC50 [1],IC50 [2],IC50 [3],IC50 [4],IC50 [5],Compound,"viability, T/C [6]","viability, T/C [7]","viability, T/C [8]","viability, T/C [9]","viability, T/C [10]","viability, T/C [11]","viability, T/C [12]","viability, T/C [13]","viability, T/C [14]","viability, T/C [15]","viability, T/C [16]","viability, T/C [17]","viability, T/C [18]","viability, T/C [19]","viability, T/C [20]",also measured
> 10000 nM,> 10000 nM,> 10000 nM,> 10000 nM,> 10000 nM,CC1(C)CCC(CN2CCN(c3ccc(C(=O)NS(=O)(=O)c4ccc(NCC5CCOCC5)c([N+](=O)[O-])c4)c(Oc4cnc5[nH]ccc5c4)c3)CC2)=C(c2ccc(Cl)cc2)C1 + Cc1cncc(-c2nc(NCCc3c[nH]c4ccccc34)c3ncn(C(C)C)c3n2)c1,92.8%,93.8%,89%,101%,94.2%,85.8%,97.8%,90.7%,94.8%,97.8%,116%,83%,103%,108%,109%,"viability, T/C [21]: 102%; viability, T/C [22]: 116%; viability, T/C [23]: 105%; viability, T/C [24]: 105%; viability, T/C [25]: 105%; viability, T/C [26]: 109%; viability, T/C [27]: 115%; viability, T/C [28]: 104%; viability, T/C [29]: 91.8%; viability, T/C [30]: 59.4%; viability, T/C [31]: 61.9%; viability, T/C [32]: 59.5%; viability, T/C [33]: 71.3%; viability, T/C [34]: 74.1%; viability, T/C [35]: 62.5%"
–,–,–,–,–,CC(C)CC(NC(=O)C(Cc1ccccc1)NC(=O)c1cnccn1)B(O)O (configuration not stated),–,–,–,–,–,–,–,–,–,–,–,–,–,–,–,"viability, T/C (compound 0.000949 µM): 112% and 106% and 110%; viability, T/C (compound 0.003 µM): 118% and 114% and 124%; viability, T/C (compound 0.00949 µM): 107% and 96.5% and 60.7%; viability, T/C (compound 0.03 µM): 30.4% and 28.9% and 21.5%; viability, T/C (compound 0.0949 µM): 11.3% and 14.9% and 9.51%; viability, T/C (compound 0.3 µM): 3.46% and 4.18% and 3.51%; IC50 (curve of compound): 22.4 nM and 21.1 nM and 12.4 nM"
532 nM,371 nM,940 nM,454 nM,2960 nM,Nc1ccn(C2OC(CO)C(O)C2(F)F)c(=O)n1 (configuration not stated) + Cc1ccccc1N=Nc1ccc(NC(=O)c2ccnn2C)c(C)c1,64.2%,65%,49.3%,44.9%,42.9%,34.2%,70.6%,60.9%,52.8%,39.8%,43.5%,36.8%,69.2%,66.4%,60.5%,"viability, T/C [21]: 44.4%; viability, T/C [22]: 43.5%; viability, T/C [23]: 36%; viability, T/C [24]: 72.5%; viability, T/C [25]: 62.4%; viability, T/C [26]: 51.5%; viability, T/C [27]: 44.9%; viability, T/C [28]: 42.1%; viability, T/C [29]: 38.7%; viability, T/C [30]: 66.8%; viability, T/C [31]: 65.5%; viability, T/C [32]: 65.2%; viability, T/C [33]: 50.3%; viability, T/C [34]: 46.1%; viability, T/C [35]: 48.5%"
